Results reported in patent publication US7011834B1, “Immunomodulating dimers” (The Board of Trustees of Leland Stanford Junior University, priority 1987, dated 2006).

What was measured:
[1] = system: popliteal lymph node cells; test: Lymph node proliferation assay (footpad injection of splenocytes); assay type: in vivo, rat; settings: treated within 24 hours of footpad injection; compared with approximately 3:1
Protocol: ACI or PVG rats (200 g) were injected intravenously with peptides dissolved in saline on day 0. On the indicated days thereafter, the left rear footpads of the rats were injected with 5×10^6 splenocytes from a syngeneic donor and the right rear footpads with 5×10^6 splenocytes from an allogeneic Lew donor (Moeller et al. Transplantation (1993) 55:650). See also Twist and Barnes Transplantation (1973) 15:182; Fanslow et al. Science (1990) 248:739). Seven days after the footpad injection, the animals were sacrificed and the popliteal lymph nodes removed. A single cell suspension was prepared, and the cell number determined using a hemocytometer.
PVG or ACI rats (3 per group) were given a single intravenous injection of 2 mg of each of the four peptides or saline. On the day of treatment, or on days 1, 7, or 10 after treatment, the right footpads were injected with 5×10^6 syngeneic splenocytes while the left footpads were injected with 5×10^6 allogeneic Lew splenocytes. Seven days after the footpad injections, the draining lymph nodes were removed, a single cell suspension was prepared, and the cell number determined.

[2] = system: murine heart allograft; test: Murine heart allograft survival, C57B1/6 donor to CBA recipient; assay type: in vivo, mice
Protocol: Following the procedure set forth in Example 2C, daily administration of B2702.75-84 (80 mg/kg/day:ip) to CBA mice with (H-2^k) recipients of a C57B1/6 with (H-2^b) murine heart allograft prolonged graft survival to 11.4±2.6 days compared to 7.5±1.2 days in untreated control animals (n=8; p<0.01, Mann-Whitney U Test). The therapy using the same compound starting at day 5 after transplantation, prolonged graft survival to 9.2±0.4 days (n=5; p<0.02) indicating the subject composition could be useful in an ongoing rejection episode. In combination with a subtherapeutic dose of cyclosporin A (2.7 mg/kg/day; ip; day 0–4) the subject peptide prolonged graft survival to at least 45 days (3 grafts out of 4 still beating) compared to a median graft survival of 14 days in animals that received cyclosporin A monotherapy.
When the B2702.75-84 was prepared as the D-isomer (all amino acids in the D-form) and administered to murine graft recipients at 10 mg/kg/day (ip; day 0–10), graft survival was prolonged to more than 22 days in 4 out of 5 animals (4 grafts out of 5 still beating).

[3] = system: CD8+CTL line specific for HLA-A2; test: Cytotoxicity assay: inhibition of lysis by established CTL, 51Cr-labeled JY targets; assay type: cell-based, human; settings: JY targets; for % Specific Lysis: cell ratio 1:1, CTL line AJY
Protocol: Cytotoxicity Assay. CTL assays were performed as described using ^51Cr-labeled EBV transformed B cells expressing the appropriate HLA allele as targets [[…] et al., J. Immunol. (1982) 129:2001]. In the present protocol, a CD8+CTL line specific for HLA-A2 was tested in the presence of various peptides for lysis of ^51Cr-labeled JY targets. Peptides were added to a final concentration of 100 μg/ml at the initiation of the 4 h assay. Each determination was the mean of triplicate wells. […] In these determinations, inhibition of cytolysis, as described above, employed the CTL cell line AJY, a long term CD8+CTL line specific for HLA-A2 and the target cell was the B-lymphoblastoid cell line JY (HLA-A2, B7). The cytotoxicity assay was performed as described by Clayberger et al., J. Exp. Med. (1984) 162:1709-1714; and Reiss et al., Proc Natl Acad Sci USA (1980) 77:5432-5436. The peptides were preincubated for 30 min with 1-3×10^3 CTLs before addition of 10^3 51Cr-labeled B-lymphoblastoid target cells. The results are reported for varying concentrations of the peptide with varying ratios of the two cell lines.

RENLRIALRY [B2702.75–84]
ratio of cells recovered from side injected with allogeneic versus syngeneic cells [1]: A similar ratio
graft survival ([2]; 80 mg/kg/day ip daily, untreated 7.5±1.2 days, n=8): 11.4 ± 2.6 days
graft survival ([2]; peptide plus subtherapeutic cyclosporin A 2.7 mg/kg/day ip day 0–4): at least 45 days
graft survival ([2]; therapy starting at day 5 after transplantation, n=5): 9.2 ± 0.4 days
inhibition of lysis by established CTL ([3]; HLA-A2 specific CD8+CTL, peptides 100 μg/ml, 4 h assay): inhibited lysis
% Specific Lysis ([3]; peptide 25 μg/ml): 23.9%
% Specific Lysis ([3]; peptide 100 μg/ml): 18.6%
% Specific Lysis ([3]; peptide 200 μg/ml): 16.4%
